This is an account of results in US9486447B2, “Compositions and methods for controlling neuronal excitation” (The General Hospital Corporation, priority 2011, dated 2016).

In one test the test system is zebrafish embryos. The test is described as follows: Zebrafish behavioral assay (light-dependent motor excitation, excitation score). Format: in vivo. As to conditions: for behavioral excitation (activity of optovin analogs) / light-dependent motor excitation in vivo: 10 μM; for behavioral excitation (activity of optovin analogs): n=5, FIG. 2A; for light-dependent motor excitation in vivo: n=3, FIG. 4H. The protocol:
To identify small molecules for the optical control of endogenous channels, a screen was conducted for compounds that could drive light-dependent motor behaviors in wild-type zebrafish. Zebrafish embryos are particularly well suited for phenotype based chemical screens^28,29. They are blind for the first 3 days of development and other than a one-time motor response to the first light exposure in dark-adapted animals (the photomotor response, PMR), zebrafish embryos are unresponsive to light^31,30 (FIG. 1A). A library of 10,000 structurally diverse synthetic small molecules was screened for compounds that render zebrafish embryos responsive to light. Behavioral responses were measured for each well in comparison to a set of 2,500 DMSO treated controls. This screen identified a single compound, optovin, that increased motor activity greater than 40 standard deviations above the control mean (FIGS. 1A-1C).
A large number of fertilized eggs (up to 5,000 embryos per day) were collected from group mating of Ekkwill or TuAB zebrafish. Embryos were raised in HEPES (10 mM) buffered E3 media in a dark incubator at 28° C. until […]. Groups of ˜8 embryos (28 hpf) were distributed into the wells of flat bottom black-walled 96 well plates filled with E3 media (360 μl). Embryos were then incubated in a dark incubator 25° C. for chemical treatment and subsequent experiments.
The Tim Tec ACTIPROBEβ library contains 10,000 compounds dissolved in DMSO at a stock concentration of 1 mg/ml (˜3 mM). The Tim Tec library was screened at a 1:300 dilution in E3 buffer for a final concentration of ˜10 μM. Negative controls were treated with an equal volume of DMSO. Stock solutions were added directly to zebrafish in the wells of a 96 well plate, mixed, and allowed to incubate for 2-10 hours in the dark prior to behavioral evaluation in the PMR assay. The Tim Tec library (10,000 compounds) was purchased from the Tim Tec corporation (Newark, Del.). The Neurotransmitter Library (700 compounds; cat #2810) was purchased from Biomol International. Reordered hit compounds were dissolved in DMSO and added to wells as described above.
Animals were exposed to a two pulse stimulus train with a 10 s inter-stimulus interval. Exposure to the first pulse was used to trigger the photomotor response, which has a refractory phase of approximately 10 minutes. […] In a typical assay, 1000 frames of digital video were recorded at 33 fps using a Hamamatsu ORCA-ER camera mounted on a Nikon TE200 microscope with a 1× objective. Instrument control and data measurement were performed using custom scripts for Metamorph Software (Molecular Devices). Each video was saved for review. Light stimuli were generated with a 300-watt xenon bulb housed in a Sutter Lambda LS illuminator and delivered to the well 10 s and 20 s after the start of each video. A cold mirror (reflectance between 300 nm and 700 nm) on the Sutter illuminator was used to block wavelengths outside of this range. Light intensity was measured using a PM100D power meter attached to a S120VC photodiode power sensor (Thorlabs). Where indicated, filters were used to restrict the excitation light to the indicated wavelengths.
To analyze digital video recordings, custom software scripts were used to automatically draw six evenly spaced line segments across each well such that each embryo is likely to be crossed by one of the lines. The software then tracks the average intensity of the pixels for each segment over time. As the embryos move, the light intensity at some of the pixels changes. The motion index was calculated by taking the total absolute difference in pixel intensity between frames. This motion index correlates with the overall amount of motion in the well, both in terms of contraction frequency and number of animals in motion. Behavioral features are quantified by ‘excitation scores’ that are calculated by taking the 75th percentile of the motion index for 3-5 s following the light stimulus. […]

For test [1], the system named is dorsal root ganglia (DRG) sensory neurons. The test is described as follows: Calcium imaging of DRG sensory neurons. The settings on record: 100 μM mustard oil. The class given is cell-based, mouse. As for the experimental part:
To determine if optovin acts on sensory neurons, the activity of treated and untreated dorsal root ganglia (DRG) sensory neurons isolated from wild type mice were compared. […] TRPA1 channels play important roles in detecting chemical, thermal, and mechanical stimuli in a variety of organisms^34,35.
C57Bl/6 male mice (3-4 weeks old) were decapitated and DRG were dissected into 4° C. Hank's Balanced Salt Solution (HBSS; Gibco), then neurons were dissociated using collagenase (1 mg/mL; Worthington) and dispase (5 mg/mL; Gibco) dissolved in HBSS. Neurons were plated in Neurobasal-A medium (Invitrogen), supplemented with B-27 Supplement (Gibco), L-glutamine (Gibco), and penicillin-streptomycin (Gibco). The neurons were plated onto coverslips coated with 0.1 mg/mL poly-D-lysine (Sigma) and 5 μg/mL laminin (Sigma). After 24 h, neurons were washed with assay buffer (HBSS, supplemented with 9 mM HEPES, 11 mM D-glucose, 0.1% fatty-acid free BSA, pH 7.3) and incubated for 1 h with 2 μM Fura2-AM (Invitrogen) with 0.2% pluronic (Invitrogen) in assay buffer in the dark at room temperature. The neurons were then washed with assay buffer and allowed to equilibrate at room temperature for 30 min prior to imaging. After a 120 s baseline perfusion of assay buffer containing 3.3% DMSO, 100 μM optovin dissolved in the DMSO-assay buffer solution, or the DMSO-assay buffer solution alone as a control, was perfused onto the neurons for a period of 1 min. Fura-2 is activated with UV-light, and the process of imaging Fura-2 was enough to activate the optovin. […] Following this one-minute period, cells were perfused with DMSO-assay buffer to remove the agonist, which was followed by addition of 100 μM mustard oil (in DMSO-assay buffer) to determine the total number of TrpA1-expressing neurons present. Images were acquired on a Nikon Eclipse Ti microscope (Nikon, Melville, N.Y.).

Entries after “also recorded” stand apart in the source; their conditions may differ.

Take `Cc1cc(/C=C2/SC(=S)NC2=O)c(C)n1-c1ccccc1` [6b8]: in the test with zebrafish embryos, the “behavioral excitation (activity of optovin analogs)” value is “bioactive; also recorded: active”.

For the compound `Cc1cc(/C=C2/SC(=S)NC2=O)c(C)n1C` [6c1], in the test with zebrafish embryos, the “behavioral excitation (activity of optovin analogs)” value is listed as “bioactive; also recorded: active”. Besides, in the test on zebrafish embryos (zebrafish, in vivo), the lowest effective dose worked out at 300 nM and the “lowest effective dose, fold lower than optovin” value worked out at 10 ×. For `Cc1cc(C=C2SC(=O)NC2=O)c(C)n1-c1cccnc1` [6c2], the “behavioral excitation (activity of optovin analogs)” value in the test with zebrafish embryos was “abrogate the optovin response; also recorded: inactive”. For `CCN1C(=O)C(=Cc2cc(C)n(-c3cccnc3)c2C)SC1=S` [6c3], the “behavioral excitation (activity of optovin analogs)” value in the test with zebrafish embryos was “abrogate the optovin response; also recorded: inactive”. Same read-out and setting: as for `Cc1cc(/C=C2/NC(=O)NC2=O)c(C)n1-c1cccnc1` [6c4], the entry is “retains optovin activity”; as for `O=C1CSC(=S)N1` [6c5], “Neither analog retains activity; also recorded: inactive”. Take `CN(C)c1ccc(C=C2SC(=S)NC2=O)cc1` [6c7]: the “behavioral excitation (activity of optovin analogs)” value in the test with zebrafish embryos is “Neither analog retains activity; also recorded: inactive”. For the compound `COc1ccc(/C=C2/SC(=S)NC2=O)cc1O` [7c7], the “light-dependent motor excitation in vivo” value in the test on zebrafish embryos was “cause light-dependent motor excitation”. For the compound `COc1cc(C(C)=C2SC(=S)NC2=O)ccc1O` [7d1], the “light-dependent motor excitation in vivo” value in the test on zebrafish embryos was “does not cause light dependent motor activity”.

On to `C1CN2CCN1CC2` [DABCO, 1,4-diazabicyclo[2.2.2]octane, reference compound], for which, in the test with zebrafish embryos (co-treatment with optovin), the “effect on other light elicited behaviors (PMR)” value was “not affect other light elicited behaviors” and the “suppression of the optovin response in vivo” value is listed as “completely suppress the optovin response”. As for `C=CCN=C=S` [mustard oil, reference compound], the “response of optovin responsive DRG neurons to mustard oil” value in test [1] is listed as “responded to mustard oil”.
